Results on 10 molecules are retold here after patent US7592143B2, “Methods of treating diseases responsive to induction of apoptosis and screening assays” (Cytovia, Inc., priority 2003, dated 2009).

The structures appear in SMILES notation.

The target of one assay is Transferrin Receptors (Homo sapiens, UniProt P02786). Description: Transferrin receptor binding assay of small molecules: inhibition of biotin-GA binding. Conditions: 0.75 h; Compounds tested at 20 μM; biotin-GA kept at 1 μM. As to the method: The assay was run similar as described in Example 38. Wells of a 96-well assay plate were coated with 500 ng of HTR in 100 μl of PBS per well overnight at 4° C. These were washed twice with 200 μl of PBS and incubated with 200 μl of 1% BSA solution in PBS and washed twice with 200 μl of PBS. 100 μl of 1 μM biotin-GA solution in binding buffer (PBS/0.1% BSA/0.1% Tween-20) was added per well and incubated for 45 minutes at room temperature. For competition of binding assays biotin-GA was pre-mixed with indicated compounds at various concentrations. Final concentration of DMSO in binding mixtures was adjusted to 1% v/v. Wells were washed 4 times with 200 μl of binding buffer. 100 μl of 100 ng/ml Eu-labeled streptavidin solution in binding buffer were added per well and incubated for 45 minutes at room temperature. Wells were washed twice with 200 μl of binding buffer and twice with 200 μl of PBS. 100 μl of DELFIA Enhancement Solution were added per well and incubated for 10 minutes at room temperature. Plates were read on a Wallac Victor plate reader (Wallac-PerkinElmer Life Sciences) using delayed fluorescence Eu protocol at default manufacturer's settings.
Sequence of Transferrin Receptors (P02786 whole entry): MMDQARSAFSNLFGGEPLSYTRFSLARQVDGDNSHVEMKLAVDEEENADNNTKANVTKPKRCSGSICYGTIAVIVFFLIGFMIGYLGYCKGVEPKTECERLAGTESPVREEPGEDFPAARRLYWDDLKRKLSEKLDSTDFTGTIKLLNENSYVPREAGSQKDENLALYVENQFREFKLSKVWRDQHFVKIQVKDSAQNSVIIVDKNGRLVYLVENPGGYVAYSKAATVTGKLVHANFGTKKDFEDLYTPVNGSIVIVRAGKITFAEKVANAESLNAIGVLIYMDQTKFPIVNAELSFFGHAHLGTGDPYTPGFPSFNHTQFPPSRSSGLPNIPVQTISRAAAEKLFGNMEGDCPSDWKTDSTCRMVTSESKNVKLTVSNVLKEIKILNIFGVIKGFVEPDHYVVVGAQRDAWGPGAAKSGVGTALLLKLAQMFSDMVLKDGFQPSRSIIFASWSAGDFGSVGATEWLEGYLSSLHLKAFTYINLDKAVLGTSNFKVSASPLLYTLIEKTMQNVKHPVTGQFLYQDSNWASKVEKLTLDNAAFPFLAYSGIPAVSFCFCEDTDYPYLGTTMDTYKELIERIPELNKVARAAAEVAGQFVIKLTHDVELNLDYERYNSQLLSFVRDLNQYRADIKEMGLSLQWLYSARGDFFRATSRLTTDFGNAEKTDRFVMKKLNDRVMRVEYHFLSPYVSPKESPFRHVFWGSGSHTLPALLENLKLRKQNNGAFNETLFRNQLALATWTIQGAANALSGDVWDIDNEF
Coated wells with no competing agent added were used to determine total binding (T). Non-coated wells were used to determine background binding (B). Background binding was consistently lower than 20%. Inhibition of binding was calculated as I=(T−BC)/(T−B)*100%, where BC was a reading corresponding to a well with a competing compound C added.
Other controls included assays of Biotin-GA binding to the wells coated with 500 μg/well of BSA or mouse Immunoglobulin G, the secondary reagent (Eu-labeled streptavidin) alone binding to the wells coated with […].

Another assay deals with T-47D. Description: Caspase cascade activation and induction of apoptosis in solid tumor cells. It is filed as cell-based, Human. Conditions: 48 h incubation; for Caspase activity (Ratio): ratio of net RFU of test compound to control; for EC50: Homo sapiens, T47D, read-out: Caspase potency EC50; for EC50 / Caspase potency EC50 (nM): 0.016 to 10 μM. Here is the method:
Human breast cancer cell lines T-47D and DLD-1 were grown according to media component mixtures designated by American Type Culture Collection +10% FCS (Invitrogen Corporation), in a 5% CO2-95% humidity incubator at 37° C. T-47D and DLD-1 cells were maintained at a cell density between 50 and 80% confluency at a cell density of 0.1 to 0.6×10^6 cells/mL. Cells were harvested at 600×g and resuspended at 0.65×10^6 cells/mL into appropriate media +10% FCS. An aliquot of 22.5 μL of cells was added to a well of a 384-well microtiter plate containing 2.5 μL of a 10% DMSO in RPMI-1640 media solution containing 0.16 to 100 μM of test compound (0.016 to 10 μM final). An aliquot of 22.5 μL of cells was added to a well of a 384-well microtiter plate containing 2.5 μL of a 10% DMSO in RPMI-1640 media solution without test compound as the control sample. The samples were mixed by agitation and then incubated at 37° C. for 48 h in a 5% CO2-95% humidity incubator. After incubation, the samples were removed from the incubator and 25 μL of a solution containing 14 μM of N-(Ac-DEVD)-N′-ethoxycarbonyl-R110 (SEQ ID NO.: 41) fluorogenic substrate (Cytovia, Inc.; WO99/18856), 20% sucrose (Sigma), 20 mM DTT (Sigma), 200 mM NaCl (Sigma), 40 mM Na PIPES buffer pH 7.2 (Sigma), and 500 μg/mL lysolecithin (Calbiochem) was added. The samples were mixed by agitation and incubated at room temperature. Using a fluorescent plate reader (Model SPECTRAfluor Plus, Tecan), an initial reading (T=0) was made approximately 1-2 min after addition of the substrate solution, employing excitation at 485 nm and emission at 530 nm, to determine the background fluorescence of the control sample. After the 3 h incubation, the samples were read for fluorescence as above (T=3 h).
The Relative Fluorescence Unit values (RFU) were used to calculate the sample readings as follows: RFU(T=3h)−Control RFU(T=0)=Net RFU(T=3h)
The activity of caspase cascade activation was determined by the ratio of the net RFU value for test compound to that of control samples. The EC50 (nM) was determined by a sigmoidal dose-response calculation (Prism 3.0, GraphPad Software Inc.).

A further assay concerns Jurkat cells. Put plainly: Cell surface transferrin receptor expression by FACS. The settings on record: 5 μM GA for 5 min. It is filed as cell-based. Here is the method:
FIG. 2B. […] Jurkat cells were treated with holo-transferrin (50 μg/ml) or GA (5 μM) alone for 5 min or pretreat for 5 min with holo-transferrin followed by 5 min GA (5 μM) treatment. Cells were then stained with FITC-conjugated anti-transferrin receptor antibody for 30 minutes at 4° C. After washing, cells were analyzed on a Becton Dickinson FACS Calibur. Data is shown as mean flourescence units (mfu). Confirmed in three independent experiments.
FACS Analysis: For cell surface staining of transferrin receptor, cells were washed with PBS+1% BSA and stained with FITC-conjugated anti-transferrin receptor antibody (RDI, Flanders, N.J.) for 30 minutes at 4° C. After washing, cells were analyzed on a FACS Calibur (BD Biosciences, San Jose, Calif.) using Cellquest software.
On the technique in general: A flow cytometer gives signals particle by particle.

For another assay, the system named is T47D cells. Put plainly: Transferrin receptor internalization, FITC anti-transferrin receptor immunofluorescence. It is filed as cell-based, human. Conditions: 2 μM GA for 10 or 30 min. Here is the method: FIG. 2A. […] T47D cells were treated with DMSO or 2 μM GA for 10 min (panels A and C respectively) and DMSO or 2 μM GA for 30 min (panels B and D, respectively) and further treated with FITC conjugated anti-transferrin receptor for 30 mins at 37° C. The cells were then fixed with methanol at −20° C. for 5 min, washed with PBS and mounted with Vectashield mounting medium. Representative of three independently confirmed experiments.
For detecting internalization of fluorescent transferrin receptor, T47D cells were plated on glass cover slips in a 6-well plate at a density of 3×10^5 cells per well on the day before the experiment. Cells were pretreated with 2 μM GA for 10 min at 37° C. washed with PBS, and then labeled for 30 min with 1 μg/ml FITC-labeled mouse anti-human transferrin receptor (RDI, Flanders, N.J.) at 37° C. The cells were then fixed with methanol at −20° C. for 5 min, washed with PBS and mounted with Vectashield mounting medium (Hard set with DAPI, Vector Laboratories, Inc., Burlingame, Calif.).

The target of assay [1] is T1, soluble human transferrin receptor (shTR) (Homo sapiens, UniProt P02786).
T1 construct: soluble human transferrin receptor (shTR); purchased Merck Biosciences, Schwalbach, Germany
T1 sequence (P02786 101-760 limits assumed): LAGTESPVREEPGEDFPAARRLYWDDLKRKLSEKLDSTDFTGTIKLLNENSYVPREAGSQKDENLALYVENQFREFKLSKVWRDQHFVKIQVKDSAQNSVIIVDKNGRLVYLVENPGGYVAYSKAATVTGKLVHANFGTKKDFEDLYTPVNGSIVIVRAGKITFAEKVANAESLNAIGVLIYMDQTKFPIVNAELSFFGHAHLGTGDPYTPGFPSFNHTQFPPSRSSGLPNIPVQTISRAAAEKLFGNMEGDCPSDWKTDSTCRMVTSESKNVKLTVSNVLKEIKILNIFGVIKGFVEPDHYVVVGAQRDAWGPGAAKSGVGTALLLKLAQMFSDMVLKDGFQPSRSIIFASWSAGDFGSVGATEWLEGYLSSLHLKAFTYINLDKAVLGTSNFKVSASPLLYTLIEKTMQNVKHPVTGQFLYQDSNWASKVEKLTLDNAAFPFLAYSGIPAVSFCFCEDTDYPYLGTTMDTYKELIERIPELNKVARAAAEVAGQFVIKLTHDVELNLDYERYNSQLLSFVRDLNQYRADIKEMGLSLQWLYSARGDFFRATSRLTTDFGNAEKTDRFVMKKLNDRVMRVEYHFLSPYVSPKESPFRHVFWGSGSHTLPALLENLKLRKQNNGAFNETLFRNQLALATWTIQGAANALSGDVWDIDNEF
Description: Biotin-GA binding to plates coated with soluble human transferrin receptor, Eu-streptavidin detection. Here is the method: FIG. 1A. […] 96-well plates were coated with soluble human transferrin receptor (shTR) (SEQ ID NO. 1) at 375 ng/well and blocked with Bovine Serum Albumin (BSA). Wells were incubated with increasing concentrations of biotin-GA in binding/washing buffer for 20 min at 30° C. Eu-streptavidin was used for the detection. Amounts of bound Eu-Streptavidin were quantified by measuring time-delayed fluorescence. Confirmed in three independent experiments.
FIG. 1C. […] Separate control wells were probed with biotinylated holo-transferrin (bio-Trn) to control for TR retention and possible denaturation over long incubation times. Independently confirmed in three experiments.
FIG. 1D. […] Binding of Biotin-GA and tritium-GA to Jurkat cells (hatched) or in-vitro TfR-binding (solid) in the presence of 1 μM GA, 50 μg/ml of apo-transferrin or 50 μg/ml of holo-transferrin is shown in this graph. […]
96-well plates were coated with soluble human transferrin receptor (shTR) (Merck Biosciences, Schwalbach, Germany) at 375 ng/well and blocked with Bovine Serum Albumin (BSA). […] Amounts of bound Eu-Streptavidin were quantified after incubation with Enhancement Solution (Perkin-Elmer, Wellesey, Mass.) by measuring time-delayed fluorescence on a Wallac Victor plate reader (Perkin-Elmer, Wellesey, Mass.) according to manufacturer's protocol. […] Kd and competition EC50 values were calculated using PRIZM software. […]

Usually inhibition stands for the drop in the measured response relative to a control, in per cent. A higher inhibition goes with a strong effect. The EC50 is the concentration at which the effect is half-maximal. For `C=CCC12OCC3CC(C=C4C(=O)c5ccccc5OC431)C2=O` (stereo not shown) [Example 17, 1-Allyl-1,3,3a,4,5,12a-hexahydro-7,13-dioxo-1,5-methano-furo[3,4-d]xanthene], testing at 20 µM at Transferrin Receptors gave an inhibition of 52%. Besides, in the assay with T-47D, the “Caspase activity (Ratio)” value is given as 9.8 and the EC50 came out at 8.38 µM.
Take `C=CCC12OCC3CC4(Oc5ccccc5C(=O)C4=CC31)C2=O` (stereo not shown) [Example 18, 1-Allyl-1,3,3a,4,4a,11a-hexahydro-10,12-dioxo-1,4a-methano-furo[3,4-b]xanthene]: at Transferrin Receptors, the inhibition at 20 µM was found to be 42%. Also, in the assay with T-47D, the “Caspase activity (Ratio)” value was 2.9 and the EC50 came out at 6.6 µM.
For `C=CCC12OCC3CC(CC4C(=O)c5ccccc5OC341)C2=O` (stereo not shown) [Example 19, 1-allyl-1,3,3a,4,5,6,6a,12a-octahydro-7,13-dioxo-1,5-methano-furo[3,4-d]xanthene], at Transferrin Receptors, at 20 µM the inhibition was 0%. In the assay on T-47D, the “Caspase potency EC50 (nM)” value is “Inactive” and the “Caspase activity (Ratio)” value is given as 1.0.
Regarding `CC(C)=CCC12OC(C)(C)C3CC(C=C4C(=O)c5ccccc5OC431)C2=O` (stereo not shown) [Example 22, 1-(3-Methyl-2-butenyl)-3,3-dimethyl-1,3,3a,4,5,12a-hexahydro-7,13-dioxo-1,5-methano-furo[3,4-d]xanthene], the inhibition at 20 µM on Transferrin Receptors worked out at 51%. For the same molecule, in the assay with T-47D, the “Caspase activity (Ratio)” value is given as 9.9 and the EC50 worked out at 4.02 µM.
For `CC(C)=CCC12OC(C)(C)C3CC4(Oc5ccccc5C(=O)C4=CC31)C2=O` (stereo not shown) [Example 23, 1-(3-Methyl-2-butenyl)-3,3-dimethyl-1,3,3a,4,4a,11a-hexahydro-10,12-dioxo-1,4a-methano-furo[3,4-b]xanthene], in that order: 59%, 14.1 and 3.73 µM.
In turn, `C=CCC12C=C(C(=O)c3ccccc3)C3(CC=C)C(COC3(CC=C)C1=O)C2` (stereo not shown) [Example 27, 1,3,7-Triallyl-8-benzoyl-4-oxa-tricyclo[4.3.1.0^3,7]dec-8-en-2-one] gave an inhibition at 20 µM at Transferrin Receptors of 11%. For the same molecule, in the assay with T-47D, the “Caspase potency EC50 (nM)” value is “Inactive” and the “Caspase activity (Ratio)” value turned out to be 1.5.
`C=CCC12CC3COC(CC=C)(C1=O)C3(CC=C)C=C2C(=O)c1ccccc1` (stereo not shown) [Example 28, 1,3,7-Triallyl-9-benzoyl-4-oxa-tricyclo[4.3.1.0^3,7]dec-8-en-2-one] came in with an inhibition at 20 µM at Transferrin Receptors of 8%. Also, in the assay on T-47D, the “Caspase potency EC50 (nM)” value is “Inactive” and the “Caspase activity (Ratio)” value amounted to 1.3.
Take `CC(C)=CCC12OC(C)(C)C3CC(C=C4C(=O)C=C(c5ccccc5)OC431)C2=O` (stereo not shown) [Example 31, 1-(3-Methyl-2-butenyl)-3,3-dimethyl-1,3,3a,4,5,10a-hexahydro-7,11-dioxo-9-phenyl-1,5-methano-furo[3,4-i]chromene]: the inhibition at 20 µM on Transferrin Receptors came to 47%. Further, in the assay with T-47D, the “Caspase activity (Ratio)” value is recorded as 11.4 and the EC50 worked out at 3.85 µM.
Molecule `CC(C)=CCC12OC(C)(C)C3CC4(OC(c5ccccc5)=CC(=O)C4=CC31)C2=O` (stereo not shown) [Example 32, 1-(3-Methyl-2-butenyl)-3,3-dimethyl-1,3,3 a,4,4a,9a-hexahydro-8,10-dioxo-6-phenyl-1,4a-methano-furo[3,4-g]chromene] registered an inhibition at 20 µM on Transferrin Receptors of 61%. Further, in the assay on T-47D, the “Caspase activity (Ratio)” value came to 10.6 and the EC50 was 3.09 µM.
Consider `CC(C)=CCC[C@]1(C)C=Cc2c(O)c3c(c(CC=C(C)C)c2O1)O[C@]12C(=C[C@@H]4C[C@H]1C(C)(C)O[C@@]2(C/C=C(/C)C(=O)O)C4=O)C3=O` [GA, Gambogic acid], for which, in the assay on Jurkat cells, the “Transferrin receptor internalization by cell surface receptor expression (in words)” value is given as “interferes with transferrin receptor (SEQ ID NO. 1) internalization”. Moreover, the “Transferrin receptor internalization (in words)” value in the assay on T47D cells is listed as “interferes with receptor internalization”. Further, the “Binding to transferrin receptor in vitro (in words)” value in assay [1] (shTR 375 ng/well, increasing concentrations of biotin-GA) is “binds transferrin receptor in vitro”. Moreover, the “Displacement of receptor-bound GA (in words)” value in assay [1] (shTR-coated wells incubated with biotin-GA, washed, then incubated with GA) is “can be displaced by active GA derivatives”.
